Four molecules from US20240150369A1, “CYCLIN-DEPENDENT KINASE INHIBITING COMPOUNDS FOR THE TREATMENT OF MEDICAL DISORDERS” (G1 Therapeutics, Inc., priority 2020, published 2024) can be followed below.

Type in all cases: biochemical
One experiment addresses CDK3-CYCLIN-E (Homo sapiens (Human), UniProt Q00526). Nature of the experiment: CDK3-Cyclin-E kinase assay (Nanosyn, Caliper microfluidic). To be noted: 12-point dose-response, singlicate, at Km for ATP. Here is the method:
(§1) Selected compounds disclosed herein were tested in kinase assays by Nanosyn (Santa Clara, CA) to determine their inhibitory effect on these CDKs. The assays were performed using microfluidic kinase detection technology (Caliper Assay Platform). The compounds were tested in 12-point dose-response format in singlicate at Km for ATP.

The target of a further experiment is CDK6/Cyclin D3 (Homo sapiens (Human), UniProt Q00534). Nature of the experiment: CDK6/Cyclin D3 kinase assay (Nanosyn, Caliper microfluidic). To be noted: 12-point dose-response, singlicate, at Km for ATP; ATP 300 μM; 3 hr. Here is the method:
(§2) Selected compounds disclosed herein were tested in kinase assays by Nanosyn (Santa Clara, CA) to determine their inhibitory effect on these CDKs. The assays were performed using microfluidic kinase detection technology (Caliper Assay Platform). The compounds were tested in 12-point dose-response format in singlicate at Km for ATP. Specifics of each assay are as described below:
CDK6/Cyclin D3: Enzyme concentration: 2 nM; ATP concentration: 300 μM; Incubation time: 3 hr.

The next experiment addresses CDK5-p25 (Homo sapiens (Human), UniProt Q00535). The experiment is described as follows: CDK5-p25 kinase assay (Nanosyn, Caliper microfluidic). To be noted: 12-point dose-response, singlicate, at Km for ATP. Here is the method: as §1
Another experiment concerns the target CDK2/Cyclin E (Homo sapiens (Human), UniProt P24941). Nature of the experiment: CDK2/Cyclin E kinase assay (Nanosyn, Caliper microfluidic). To be noted: 12-point dose-response, singlicate, at Km for ATP; ATP 100 μM; 3 hr. Here is the method:
as §2
CDK2/Cyclin E: Enzyme concentration: 0.15 nM; ATP concentration: 100 μM; Incubation time: 3 hr.

Another experiment deals with CDK1/Cyclin B1 (Homo sapiens (Human), UniProt P06493). The experiment is described as follows: CDK1/Cyclin B1 kinase assay (Nanosyn, Caliper microfluidic). To be noted: 12-point dose-response, singlicate, at Km for ATP; ATP 40 μM; 3 hr. Here is the method: as §2
Sequence of CDK1/Cyclin B1 (P06493 whole entry): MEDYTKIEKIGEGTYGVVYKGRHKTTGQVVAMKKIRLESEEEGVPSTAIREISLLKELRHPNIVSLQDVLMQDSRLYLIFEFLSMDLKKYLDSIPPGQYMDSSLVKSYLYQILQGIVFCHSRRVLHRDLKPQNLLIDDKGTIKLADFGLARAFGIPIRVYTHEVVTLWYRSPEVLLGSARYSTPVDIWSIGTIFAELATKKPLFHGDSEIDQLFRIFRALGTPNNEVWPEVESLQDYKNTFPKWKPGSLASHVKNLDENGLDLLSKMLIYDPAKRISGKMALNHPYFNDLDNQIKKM
Sequence of CDK1/Cyclin B1 (P14635 whole entry partner): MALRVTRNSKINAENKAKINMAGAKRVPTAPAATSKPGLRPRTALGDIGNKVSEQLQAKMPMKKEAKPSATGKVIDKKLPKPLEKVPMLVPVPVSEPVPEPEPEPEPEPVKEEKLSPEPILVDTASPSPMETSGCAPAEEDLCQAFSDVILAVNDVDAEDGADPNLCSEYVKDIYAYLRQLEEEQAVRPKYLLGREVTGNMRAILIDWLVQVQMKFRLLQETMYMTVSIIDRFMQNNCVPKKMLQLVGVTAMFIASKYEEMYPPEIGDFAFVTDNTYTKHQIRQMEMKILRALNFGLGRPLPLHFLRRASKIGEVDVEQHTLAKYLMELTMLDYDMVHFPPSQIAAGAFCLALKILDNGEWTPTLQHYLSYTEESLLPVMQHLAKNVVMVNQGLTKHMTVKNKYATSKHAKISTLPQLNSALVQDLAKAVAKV
CDK1/Cyclin B1: Enzyme concentration: 0.08 nM; ATP concentration: 40 μM; Incubation time: 3 hr.

The target in a further experiment is CDK7 (Homo sapiens (Human), UniProt P50613). Nature of the experiment: CDK7 kinase assay (Nanosyn, Caliper microfluidic). To be noted: 12-point dose-response, singlicate, at Km for ATP. Here is the method: as §1
Sequence of CDK7 (P50613 whole entry): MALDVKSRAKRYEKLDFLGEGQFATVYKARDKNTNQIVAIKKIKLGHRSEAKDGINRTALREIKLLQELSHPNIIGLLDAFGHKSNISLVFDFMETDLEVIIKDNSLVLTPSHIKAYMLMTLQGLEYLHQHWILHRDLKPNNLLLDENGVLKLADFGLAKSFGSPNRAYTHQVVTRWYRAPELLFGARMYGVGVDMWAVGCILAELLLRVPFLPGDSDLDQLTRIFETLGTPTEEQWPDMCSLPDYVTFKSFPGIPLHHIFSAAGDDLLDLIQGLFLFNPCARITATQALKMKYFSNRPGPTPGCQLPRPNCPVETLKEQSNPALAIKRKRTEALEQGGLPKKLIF
Sequence of CDK7 (P51946 whole entry partner): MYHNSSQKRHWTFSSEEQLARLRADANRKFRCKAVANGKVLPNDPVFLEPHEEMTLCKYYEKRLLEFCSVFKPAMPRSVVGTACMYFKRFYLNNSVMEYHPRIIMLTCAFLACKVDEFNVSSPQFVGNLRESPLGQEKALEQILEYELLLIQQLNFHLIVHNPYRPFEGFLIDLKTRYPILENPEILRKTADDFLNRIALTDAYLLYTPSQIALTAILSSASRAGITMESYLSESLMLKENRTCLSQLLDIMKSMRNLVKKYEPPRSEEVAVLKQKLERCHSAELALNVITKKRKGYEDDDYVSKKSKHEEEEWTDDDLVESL
Sequence of CDK7 (P51948 whole entry partner): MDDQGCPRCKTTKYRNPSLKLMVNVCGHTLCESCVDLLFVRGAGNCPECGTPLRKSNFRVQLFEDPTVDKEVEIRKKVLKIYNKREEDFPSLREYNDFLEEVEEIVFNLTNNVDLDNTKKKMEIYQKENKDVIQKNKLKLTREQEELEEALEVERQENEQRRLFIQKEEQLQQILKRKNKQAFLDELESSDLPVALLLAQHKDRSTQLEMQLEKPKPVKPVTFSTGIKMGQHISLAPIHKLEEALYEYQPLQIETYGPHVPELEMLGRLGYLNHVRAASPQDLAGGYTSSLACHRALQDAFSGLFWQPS
The next experiment addresses CDK9/Cyclin T1 (Homo sapiens (Human), UniProt P50750). The experiment is described as follows: CDK9/Cyclin T1 kinase assay (Nanosyn, Caliper microfluidic). To be noted: 12-point dose-response, singlicate, at Km for ATP; ATP 10 μM; 17 hr. Here is the method: as §2
CDK9/Cyclin T1: Enzyme concentration: 5 nM; ATP concentration: 10 μM; Incubation time: 17 hr.

Another experiment concerns the target CDK4/Cyclin D1 (Homo sapiens (Human), UniProt P11802). The experiment is described as follows: CDK4/Cyclin D1 kinase assay (Nanosyn, Caliper microfluidic). To be noted: 12-point dose-response, singlicate, at Km for ATP; ATP 200 μM; 3 hr. Here is the method: as §2
CDK4/Cyclin D1: Enzyme concentration: 1 nM; ATP concentration: 200 μM; Incubation time: 3 hr.

The target of a further experiment is CDK2/Cyclin A (Homo sapiens (Human), UniProt P24941). The experiment is described as follows: CDK2/Cyclin A kinase assay (Nanosyn, Caliper microfluidic). To be noted: 12-point dose-response, singlicate, at Km for ATP; ATP 50 μM; 3 hr. Here is the method:
as §2
CDK2/Cyclin A: Enzyme concentration: 0.1 nM; ATP concentration: 50 μM; Incubation time: 3 hr.

Sequence of CDK6/Cyclin D3 (Q00534 whole entry): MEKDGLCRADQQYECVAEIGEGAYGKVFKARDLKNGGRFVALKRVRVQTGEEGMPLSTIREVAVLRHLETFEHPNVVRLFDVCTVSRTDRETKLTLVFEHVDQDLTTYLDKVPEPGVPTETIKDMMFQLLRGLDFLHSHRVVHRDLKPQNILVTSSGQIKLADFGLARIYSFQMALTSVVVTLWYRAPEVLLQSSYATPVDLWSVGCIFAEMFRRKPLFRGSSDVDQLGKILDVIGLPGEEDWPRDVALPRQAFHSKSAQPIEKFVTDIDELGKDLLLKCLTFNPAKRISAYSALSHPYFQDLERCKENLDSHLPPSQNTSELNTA
Sequence of CDK6/Cyclin D3 (P30281 whole entry partner): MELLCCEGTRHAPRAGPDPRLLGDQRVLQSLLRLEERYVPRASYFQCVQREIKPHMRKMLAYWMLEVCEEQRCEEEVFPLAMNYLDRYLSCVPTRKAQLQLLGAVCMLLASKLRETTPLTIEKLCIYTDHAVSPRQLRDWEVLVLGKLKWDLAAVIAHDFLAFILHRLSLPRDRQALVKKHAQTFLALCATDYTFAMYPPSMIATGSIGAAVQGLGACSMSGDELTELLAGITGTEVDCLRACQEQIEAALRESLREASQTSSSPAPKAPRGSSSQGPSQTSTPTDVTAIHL
Sequence of CDK9/Cyclin T1 (P50750 whole entry): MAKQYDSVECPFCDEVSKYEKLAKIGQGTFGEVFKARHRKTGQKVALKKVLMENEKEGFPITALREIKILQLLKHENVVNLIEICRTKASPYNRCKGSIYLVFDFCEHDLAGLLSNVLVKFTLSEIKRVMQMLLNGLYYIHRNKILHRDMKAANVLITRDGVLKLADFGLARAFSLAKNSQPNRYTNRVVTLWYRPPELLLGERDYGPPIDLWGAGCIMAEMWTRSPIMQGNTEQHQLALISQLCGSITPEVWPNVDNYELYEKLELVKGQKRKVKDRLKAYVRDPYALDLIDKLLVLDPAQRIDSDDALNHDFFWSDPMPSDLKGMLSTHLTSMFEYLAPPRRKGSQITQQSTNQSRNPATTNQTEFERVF
Sequence of CDK9/Cyclin T1 (O60563 whole entry partner): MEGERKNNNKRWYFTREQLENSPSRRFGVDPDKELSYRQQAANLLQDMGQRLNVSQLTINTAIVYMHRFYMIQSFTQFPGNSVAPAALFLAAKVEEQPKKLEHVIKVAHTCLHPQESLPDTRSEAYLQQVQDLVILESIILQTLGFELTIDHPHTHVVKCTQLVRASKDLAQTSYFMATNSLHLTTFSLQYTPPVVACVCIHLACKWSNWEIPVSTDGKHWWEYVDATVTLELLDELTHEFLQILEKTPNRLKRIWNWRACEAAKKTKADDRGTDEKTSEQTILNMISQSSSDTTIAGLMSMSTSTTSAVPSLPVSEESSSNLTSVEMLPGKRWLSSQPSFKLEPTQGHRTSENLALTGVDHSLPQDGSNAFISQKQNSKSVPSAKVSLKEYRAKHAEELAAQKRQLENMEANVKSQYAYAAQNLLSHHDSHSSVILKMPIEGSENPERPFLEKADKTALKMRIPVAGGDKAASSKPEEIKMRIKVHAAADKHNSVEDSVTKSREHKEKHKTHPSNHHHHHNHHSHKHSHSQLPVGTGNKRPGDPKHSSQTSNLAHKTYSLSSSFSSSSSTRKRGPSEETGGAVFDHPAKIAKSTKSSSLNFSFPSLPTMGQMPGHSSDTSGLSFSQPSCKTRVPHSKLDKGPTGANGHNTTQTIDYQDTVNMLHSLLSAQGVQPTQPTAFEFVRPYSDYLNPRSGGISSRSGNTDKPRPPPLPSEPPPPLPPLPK
Sequence of CDK5-p25 (Q00535 whole entry): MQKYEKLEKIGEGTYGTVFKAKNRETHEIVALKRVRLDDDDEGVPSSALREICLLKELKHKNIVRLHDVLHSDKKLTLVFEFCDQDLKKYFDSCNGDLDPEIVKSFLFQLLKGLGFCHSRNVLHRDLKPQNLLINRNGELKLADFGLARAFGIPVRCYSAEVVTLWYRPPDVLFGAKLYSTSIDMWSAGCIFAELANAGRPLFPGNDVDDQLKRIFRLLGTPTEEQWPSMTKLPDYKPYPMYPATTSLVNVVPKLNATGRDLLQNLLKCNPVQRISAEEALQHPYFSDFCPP
Sequence of CDK5-p25 (Q15078 99-307 partner): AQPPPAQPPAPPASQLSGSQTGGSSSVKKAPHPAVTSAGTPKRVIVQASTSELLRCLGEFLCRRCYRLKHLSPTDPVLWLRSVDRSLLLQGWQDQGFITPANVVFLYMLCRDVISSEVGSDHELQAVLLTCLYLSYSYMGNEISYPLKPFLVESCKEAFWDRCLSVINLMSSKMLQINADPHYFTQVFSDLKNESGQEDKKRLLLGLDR
Sequence of CDK4/Cyclin D1 (P11802 whole entry): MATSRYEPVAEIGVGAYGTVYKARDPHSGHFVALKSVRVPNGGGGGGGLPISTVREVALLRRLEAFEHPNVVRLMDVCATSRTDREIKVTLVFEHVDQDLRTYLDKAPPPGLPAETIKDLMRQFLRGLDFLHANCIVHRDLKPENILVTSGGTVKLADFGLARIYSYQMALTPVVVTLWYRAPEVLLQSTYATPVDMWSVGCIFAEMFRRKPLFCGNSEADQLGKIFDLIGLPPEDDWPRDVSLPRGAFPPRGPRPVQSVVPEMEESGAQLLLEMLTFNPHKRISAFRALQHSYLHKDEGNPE
Sequence of CDK4/Cyclin D1 (P24385 whole entry partner): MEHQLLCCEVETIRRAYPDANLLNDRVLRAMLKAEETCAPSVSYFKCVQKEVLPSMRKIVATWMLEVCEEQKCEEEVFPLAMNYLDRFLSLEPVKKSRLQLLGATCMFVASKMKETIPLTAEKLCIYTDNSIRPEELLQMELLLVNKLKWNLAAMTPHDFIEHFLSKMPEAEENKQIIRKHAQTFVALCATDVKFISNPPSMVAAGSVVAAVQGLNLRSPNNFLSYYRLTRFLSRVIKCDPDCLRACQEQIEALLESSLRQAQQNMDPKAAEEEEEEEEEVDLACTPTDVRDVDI

For the molecule `NS(=O)(=O)c1ccc(Nc2ncc3cc4n(c3n2)C2(CCCCC2)C(=O)NN4)cc1` [Compound 3, 4-((3′-oxo-2′,3′-dihydro-1′H-spiro[cyclohexane-1,4′-pyrimido[5′,4′:4,5]pyrrolo[2,1-c][1,2,4]triazin]-7′-yl)amino)benzenesulfonamide], the IC50 at CDK3-CYCLIN-E is 9.9 nM; at CDK6/Cyclin D3, 350 nM; on CDK5-p25, 14 nM; against CDK2/Cyclin E it was 0.56 nM; against CDK1/Cyclin B1, 33 nM; against CDK7, over 1000 nM. The IC50 turned out to be 62 nM against CDK9/Cyclin T1, 130 nM at CDK4/Cyclin D1 and 2.5 nM against CDK2/Cyclin A.

For `CN1NC(=O)C2(CCCCC2)n2c1cc1cnc(Nc3ccc(S(N)(=O)=O)cc3)nc12` [Compound 12, 4-((1′-methyl-3′-oxo-2′,3′-dihydro-1′H-spiro[cyclohexane-1,4′-pyrimido[5′,4′:4,5]pyrrolo[2,1-c][1,2,4]triazin]-7′-yl)amino)benzenesulfonamide], the 50% inhibitory concentration (IC50) is 59 nM against CDK3-CYCLIN-E; 160 nM against CDK6/Cyclin D3; 140 nM at CDK5-p25; 13 nM on CDK2/Cyclin E; 88 nM on CDK1/Cyclin B1; over 1000 nM against CDK7. For the same molecule, the IC50 against CDK9/Cyclin T1 amounted to 180 nM; at CDK4/Cyclin D1 it was 28 nM; against CDK2/Cyclin A, 9.2 nM.

Consider `NS(=O)(=O)c1ccc(Nc2ncc3cc4n(c3n2)C2(CCCCC2)C(=O)N[C@H]4CF)cc1` [Compound 18, (R)-4-((6′-(fluoromethyl)-8′-oxo-7′,8′-dihydro-6′H-spiro[cyclohexane-1,9′-pyrazino[1′,2′:1,5]pyrrolo[2,3-d]pyrimidin]-2′-yl)amino)benzenesulfonamide], for which the IC50 at CDK3-CYCLIN-E turned out to be 18 nM; at CDK6/Cyclin D3, 150 nM; against CDK5-p25 it was 17 nM; on CDK2/Cyclin E, 2.7 nM; at CDK1/Cyclin B1 it was 20 nM; at CDK7 it was 840 nM. In addition, the IC50 against CDK9/Cyclin T1 is 10 nM; against CDK4/Cyclin D1 it was 33 nM; against CDK2/Cyclin A, 1.7 nM.

For the molecule `C[C@@H]1NC(=O)C2(CCCCC2)n2c1cc1cnc(Nc3ccc(S(N)(=O)=O)cc3)nc12` [Compound 19, (S)-4-((6′-methyl-8′-oxo-7′,8′-dihydro-6′H-spiro[cyclohexane-1,9′-pyrazino[1′,2′:1,5]pyrrolo[2,3-d]pyrimidin]-2′-yl)amino)benzenesulfonamide], the IC50 on CDK3-CYCLIN-E worked out at 34 nM; against CDK6/Cyclin D3, 210 nM; against CDK5-p25, 62 nM; on CDK2/Cyclin E, 4.8 nM; against CDK1/Cyclin B1, 40 nM; against CDK7, 800 nM. For the same molecule, the IC50 against CDK9/Cyclin T1 came to 22 nM; against CDK4/Cyclin D1, 40 nM; at CDK2/Cyclin A it was 4.3 nM.
